experiment: Human HepG2 cell viability assay in 384 well format; type: toxicity, cell-based; design: dose 125 nL, time 70.5 hour; concentration not given beside the values; conditions: HepG2 cells, read-out: Inhibition

Compound	cytotoxicity at 70.5 h
O=C(c1ccncn1)N1CCO[C@H]2[C@@H](OCc3cccnc3)CC[C@@H]21	-9.05%
CC(C)(C)c1ccc(OCC(=O)O)c(CN2C[C@H]3C[C@H](O)C[C@H]3C2)c1	2.38%
O=C(c1ccco1)N1CCCn2cnc(COCC3CC3)c2C1	-7.39%
CC(=O)N1CCC(Cc2cncc(-c3c(C)n[nH]c3C)n2)C1 (configuration not stated)	-9.36%
CN(CCCc1cc(-c2ccccc2)no1)S(C)(=O)=O	8.59%
CN1CCC(C(=O)N2CCC(=Cc3cccc(F)c3)CC2)CC1=O (configuration not stated)	16.2%
CS(=O)(=O)C1CCN(S(=O)(=O)c2ccc(F)c(F)c2)C1 (configuration not stated)	-5.07%
CCC(C)Nc1ccc(-c2nc(-c3cccc(OC)c3OC)no2)cn1 (configuration not stated)	13.1%
Cc1cnn(CCNCc2csc(-c3ncccn3)n2)c1	18.5%
CN(Cc1nnc(C2CC2)n1C)C(=O)c1ccnc(OC2CCC2)c1	-10.6%
OCc1ccc(CN2CCC(n3cc(-c4ccsc4)nn3)CC2)o1	-5.24%
CC(=O)N1CCC(Oc2ccc(Cl)cc2C(=O)N2CCCO2)CC1	-3.91%
O=C(C1CC1)N1CCN(C(=O)C2CC(=O)N(c3ccccc3Br)C2)CC1 (configuration not stated)	26.2%
Cc1ccc(CN2CCNC(=O)C2CC(=O)N2CCSCC2)o1 (configuration not stated)	2.5%
CCn1nccc1CNC(=O)CCC1CCCC1	18.7%
O=C(O)CSc1nnc(-c2cn[nH]c2)n1-c1ccccc1C(F)(F)F	-3.6%
CO[C@H]1CO[C@@]2(CCCN(C(=O)C3=CCCCC3)C2)C1	-2.72%
O=C(NCCN1CCOCC1)Nc1cnc2cc(Cl)ccc2c1O	12.7%
Cc1cc(C)c2[nH]c(C)c(CC(=O)N(C)CCN(C)C)c2c1	1.29%
Cc1ccc(OCC2CCCN(C(=O)Cn3ccccc3=O)C2)cc1 (configuration not stated)	25%
CCC(O)C1CCN(C(=O)Nc2nc(-c3ccccc3)ns2)CC1 (configuration not stated)	13.7%
COCCN(Cc1ccc(C)cc1)CC1CCOC1 (configuration not stated)	-5.9%
COc1ccc2c(c1)CCN2Cc1nc2c(cnn2C)c(=O)[nH]1	-9.79%

Compound	cytotoxicity at 70.5 h
Cc1ccc(CN2C[C@@H]3COC[C@H](C(=O)N4CCCCO4)[C@@H]3C2)o1	-8.64%
Cn1cc(CN2CCC3(CCN(c4cnn(C)c4)C3=O)C2)cn1 (configuration not stated)	-10.8%
CCS(=O)(=O)NC1CCCN(Cc2ccn(C)c(=O)c2)C1 (configuration not stated)	-9.02%
Cc1ccc(-c2ncc(C(=O)N3CCCC(CCN)C3)c(O)n2)cc1 (configuration not stated)	-7.81%
CCC(=O)N1CCC(Cc2ccccc2-c2ccncc2)(C(N)=O)C1 (configuration not stated)	-10.9%
Cc1ccc(Br)c(S(=O)(=O)NCc2ccnn2C)c1	-5.04%
CCOCC(=O)N(C)c1ccc(F)c(Cl)c1	-2.55%
O=C(c1nn(-c2ccccc2F)cc1O)N1CCCCC1	-7.27%
CC(C1CCN(Cc2ccc(N(C)C)nc2)CC1)N(C)C (configuration not stated)	-2.39%
Cc1nc(C)c(C(=O)N2CCc3cc(F)ccc3C2C)o1 (configuration not stated)	-4.82%
Cc1ccc(CN2CCC3(CC2)C(=O)N(CCO)CCN3C)o1	-3.64%
Cc1nc(CN2CCN(C(=O)COCc3ccccc3)CC2)no1	-9.26%
COc1cccc(C(=O)NCC(O)c2cccs2)c1 (configuration not stated)	-0.864%
CCOc1ccnc(N2CCCN(c3nc(C4CC4)ns3)CC2)n1	4.37%
O=C(NCCSc1ccccc1)[C@H]1CNC[C@H](C(=O)N2CCOCC2)C1	-6.2%
Cc1noc2ncc(C(=O)N3CCCC3c3ccncc3)cc12 (configuration not stated)	33.6%
CCc1noc(C(C)N2CCN(Cc3noc(C4CC4)n3)CC2)n1 (configuration not stated)	-8.62%
Cc1ccc(C(=O)N2Cc3ccccc3OC3(CCOCC3)C2)cn1	30.6%
Cc1nc(C)n(CC2CCCN2CC(=O)Nc2ccncc2)n1 (configuration not stated)	-4.71%
O=C(O)C1(Cc2ccc(-c3cccs3)cc2)CCNC1 (configuration not stated)	-2.56%
N#CC1(NC(=O)COc2cc(Cl)cc(Cl)c2)CCSC1 (configuration not stated)	-14.6%
CC1(c2ccccc2)CCCN(Cc2cncn2C2CC2)C1 (configuration not stated)	-8.21%
CN(C)S(=O)(=O)N1CCC(Oc2ccccn2)CC1	3.95%

Compound	cytotoxicity at 70.5 h
NC(=O)CN1CCC(NC(=O)Nc2nccs2)CC1	21.5%
Cc1ncccc1O[C@H]1CCN(C(=O)c2cccs2)CC[C@@H]1O	-14.1%
CSCCC(O)C(=O)N1CCCN(Cc2ccc(F)cc2)CC1 (configuration not stated)	8.69%
Cc1nn(C)c(N2CCOCC2)c1CN[C@@H]1c2ccccc2C[C@@H]1O	-0.734%
Cc1noc(C)c1CCCNC(=O)Nc1cccc([S+](C)[O-])c1 (configuration not stated)	-3.63%
Cc1cn2c(n1)CCC(NC(=O)c1cc[nH]n1)C2 (configuration not stated)	-4.85%
CC(C)OCCCNC(=O)CS(=O)(=O)Cc1ccc(Cl)c(Cl)c1	-9.73%
CC(c1ccc(Cl)cc1)N1CCN(CCCS(C)(=O)=O)CC1 (configuration not stated)	1.48%
Cc1ccc(C(=O)N2C[C@@H](N3CCN(C)CC3)[C@H]3OCCC[C@H]32)cn1	-11.9%
Cc1noc(C)c1CCC(=O)N1CCN(CCn2cccn2)CC1	14.6%
Cc1ccc(N2CCC3(CC2)CC(OCC(=O)N(C)C)CO3)nn1 (configuration not stated)	-8.76%
COc1ccnc(NC(Cc2ccccc2)C(=O)N(C)C)n1 (configuration not stated)	5.68%
CCC[C@@H]1CN(Cc2ccc(C(F)(F)F)nc2)C[C@H]1NS(C)(=O)=O	11.1%
CCOc1ccc(C(=O)N2CCCC2c2c(C)nn(C)c2Cl)cn1 (configuration not stated)	-1.78%
CCc1nc(Nc2ccc(C(=O)NC)cc2)c2c(n1)c(C)nn2CC	-16.9%
CC(C)CN1CCc2[nH]nc(C(=O)N3CCCC3)c2C1	28.7%
Cc1ccc(CC(=O)NCC(O)c2ccc(Cl)cc2Cl)cn1 (configuration not stated)	3.42%
O=C(c1ccc(C2CCCO2)s1)N1CCCOCC1 (configuration not stated)	-8.57%
CN(Cc1ccc(F)cc1)C(=O)CN1CCOC(Cn2cccn2)C1 (configuration not stated)	0.224%
C[C@@H]1CN(C(=O)c2cc(Cn3ccc4ccccc43)[nH]n2)C[C@H](C)O1	26.1%
O=C(c1ccoc1)N1Cc2cnn(CC3CC3)c2C(COCC2CC2)C1 (configuration not stated)	16%
O=C([C@H]1CC[C@@H]2[C@@H](CCN2C2CCCCC2)O1)N1CCOCC1	-7.67%
Cc1nc(CSc2ccc(C(F)(F)F)cn2)no1	-9.49%

Compound	cytotoxicity at 70.5 h
COc1cccc(OC)c1CN1CC(O)CN(S(C)(=O)=O)CC1=O (configuration not stated)	25.6%
CN1CCC(c2[nH]ncc2S(C)(=O)=O)CC1	-7.29%
N[C@@H]1c2ccccc2C2(CCN(c3cccc(C(F)(F)F)n3)CC2)[C@H]1O	5.4%
Cc1cccc(CN2CC[C@@H]3[C@@H](CO[C@H]3CNc3ncccn3)C2)n1	-8.04%
O=C(Cn1cccc(S(=O)(=O)N2CCCC2)c1=O)c1ccccc1Cl	-8.77%
CNc1nnc(CCn2nc(C)c(Br)c2C)s1	19.6%
O=C(Cc1cccs1)NCCNc1nccc(C(F)(F)F)n1	-3.67%
Cc1c(CNS(=O)(=O)c2cccc(COC(C)C)c2)cnn1C	-5.71%
O[C@@]1(CN2CCN(Cc3ccncc3)CC2)CCCN2CCCC[C@@H]21	-9.72%
O=c1[nH]nc(CNc2ncc(Br)cn2)[nH]1	-2.47%
CCOC(=O)c1sc2ccsc2c1CNC(=O)CCOC	16.3%
Cn1cncc1CNC1CC2(CCN(S(C)(=O)=O)CC2)c2ccccc21 (configuration not stated)	-2.27%
CC(NC(=O)Nc1cccnc1N1CCCC1)c1ccccn1 (configuration not stated)	-17.8%
Cc1cc(C)n(C2CCCN(C(=O)c3ccc(NC4CC4)nc3)C2)n1 (configuration not stated)	-0.521%
Cc1nccc(CN2CC[C@@]3(CCCN3Cc3ccccc3)[C@@H](O)C2)n1	1.99%
c1cc(-c2nn3c(CN4CCOCC4)nnc3s2)ccn1	-8.04%
CCOC(=O)c1sc2ccsc2c1CNC(=O)C(C)OC (configuration not stated)	3.36%
O=C(NCCCn1cnnc1)C1CCCN(C2CCCC2)C1 (configuration not stated)	26.7%
CCCN1CCCn2nc(CNC(=O)CCOC)cc2C1	-4.33%
CN(C)C(=O)CNC(=O)Nc1cccc(Cl)c1SC(F)F	-4.52%
Cc1nc(CN2CCN(C(=O)c3ccn(C)c(=O)c3)CC2)cs1	7.44%
Cc1ccc2nc(C3CCCN3Cc3csc(C)n3)[nH]c2c1 (configuration not stated)	-6.25%
Cc1cnn(CC(C)NCc2ccc(OCc3noc(C)n3)cc2)c1 (configuration not stated)	-0.0911%

Compound	cytotoxicity at 70.5 h
CCc1nn(C)c2[nH]nc(NC(=O)c3cccnc3OCC(C)C)c12	-90.4%
c1ccc(-c2noc(C3CCN(CCCn4cncn4)CC3)n2)cc1	0.0875%
CN(Cc1ccco1)C(=O)CN1CCOC(Cn2cccn2)C1 (configuration not stated)	-1.5%
N#Cc1cc(F)ccc1NCC1CCS(=O)(=O)CC1	-1.39%
Cn1cncc1CN1CCCC1c1cncc(Oc2ccc(Cl)cc2)n1 (configuration not stated)	8.74%
CN(CC(=O)N1CCN(c2cnccn2)CC1)c1ccc(Cl)cn1	-13.1%
Cc1ccc(CN2CCCC3(CCCC(=O)N3C)C2)s1 (configuration not stated)	-9.33%
Cc1cc(C)n(-c2cncc(N3CCN(C(=O)C(C)C)CC3)n2)n1	-4.92%
Cc1cc(C(=O)NCC2OCCc3cn(CC4CC4)nc32)c(C)[nH]1 (configuration not stated)	-3.07%
COc1ccc(C(=O)C2CCCN(Cc3ccncc3)C2)cc1OC (configuration not stated)	-3.65%
c1ccc(C(CC2CN(Cc3c[nH]cn3)CCO2)c2ccccc2)cc1 (configuration not stated)	-5.4%
COc1ccc(C)cc1CSCCn1nc2ccccn2c1=O	-11.5%
Cc1cc(C)n2nc(C(=O)N3CCCC4(CCOC4)C3)cc2n1 (configuration not stated)	-10.3%
CC(C)CN1CCCC2(CCN(c3ccc(C#N)cn3)C2)C1 (configuration not stated)	2.01%
CCc1ccc(S(=O)(=O)Nc2cc(C(=O)O)ccc2F)s1	-3.74%
CCc1nc(C(=O)N2CCCC2)nn1-c1c(Cl)cccc1Cl	-2.51%
Cc1nn(C)c(N2CCOCC2)c1CNCc1ccc(C(C)O)cc1 (configuration not stated)	-11.7%
Cc1ccc(-n2nnc(C(=O)NCC3(CO)CC3)c2C2CC2)cc1	-4.67%
NS(=O)(=O)c1cnn(CCC(=O)N(C2CCCCC2)C2CC2)c1	-3.97%
Cc1nn(C)c2c(=O)n(CC(=O)NCCN3CCCCCC3)ccc12	-4.19%

Reference: ChEMBL document CHEMBL3507680, “University of Dundee, Gates Library screen for HepG2 cell viability”
